The record followed here is US11504394B2, “Targeted ionophore-based metal delivery” (The Regents of the University of California, priority 2018, dated 2022).

Each structure is given as a SMILES string.

A short description of data set [1]: Log P, shake-flask octanol-water partition. It is filed as physicochemical. Conditions: n-octanol / PBS (pH=7.4), error = standard deviation. The method, then: Log P measurements were performed with The shake-flask method based on compound partitioning between n-octanol and PBS (pH=7.4) layers. Octanol (saturated with PBS) and PBS (saturated with octanol) was obtained by vigorous mixing for one hour followed by layer separation in a separatory funnel over 24 hours. For Gal-Cu(gtsm): 500 μL of standard solutions were made with 100, 50, 20, 10, and 5 μM of Gal-Cu(gtsm) dissolved in PBS-saturated octanol. 50 mM stock solution in DMSO was diluted to 100 μM final concentration with 490/10, 480/20, and 460/40 μL of saturated octanol/PBS. For Cu(gtsm): 500 μL of standard solutions were made with 100, 50, 20, 10, and 5 μM of […]. 50 mM stock solution in DMSO was diluted to 100 μM final concentration with 10/490, […], and 50/450 μL of saturated octanol/PBS. All standards and samples were vortexed vigorously in 1.7 mL microcentrifuge tubes for 60 seconds, then spun down at 12,000 g for 2 mins in a microcentrifuge. 200 μL of each standard and sample were added to a clear 96-well plate, and the blank-subtracted absorbance at 470 nm was read in a Synergy M2 plate reader. All standards and samples were measured in duplicate. Log P values were calculated from the subsequent partition coefficients and averaged across the three partition conditions to obtain the final log P value. […]

Data set [2] in a line: Retention of copper in presence of excess Zn^2+ and Fe^2+. It is filed as physicochemical. The following applies: 1000-fold excess of Zn^2+ and Fe^2+. As for the experimental part:
All spectroscopic measurements were performed in 20 mM PBS, pH 7.4 unless otherwise indicated. Absorption spectra were acquired on a Varian Cary 50 spectrophotometer.

Another data set has as its system HEK 293T cells. In words: Cell viability, propidium iodide staining, HEK 293T. Format: cell-based. The following applies: 500 μM dose, three hours. The method, then:
Flow cytometry experiments were performed with BD LSR Fortessa Cell Analyzer in the College of Chemistry at UC Berkeley. Gains were set to include live cells based on viability experiments using propidium iodide, with dead cells via 0.1% saponin treatment as a negative control. The standard PE-A (570 nm longpass, 586/15 nm bandpass) was used. For each biological replicate, three technical replicates of 5,000 (HepG2) or 10,000 cells (HEK 293T) were counted. Flow cytometry data was processed using FlowJo (FlowJo, LLC).
HEK 293T cells were plated in 6-well plates at 60-80% confluency. After ionophore treatment at the given concentration for three hours, cells were washed with DMEM and incubated with 3 μM propidium iodide in PBS for 15 minutes, then rinsed in PBS. HEK 293T cells were mechanically removed via pipetting off the plate with 1 mL PBS and filtered through a 35 μm nylon mesh into 5 mL culture tubes for analysis. HepG2 cells were plated in 12-well plates at 60-80% confluency. […]

The test system of data set [3] is HepG2 (ASGPR-expressing) cells. Put plainly: Cellular copper delivery by ICP-MS, HepG2. It is filed as cell-based. As for the experimental part: Cells were maintained by the UC Berkeley Tissue Culture Facility. HEK 293T and HepG2 cells were maintained as a monolayer in exponential growth at 37° C. in a 5% CO2 atmosphere. HEK 293T cells were maintained in Dulbecco's Modified Eagle Medium (DMEM, Gibco) supplemented with 10% fetal bovine serum (FBS, Hyclone), and glutamax (Gibco). HepG2 cells were maintained in low glucose DMEM with L-glutamine and sodium pyruvate (Gibco). One day before ionophore treatment, cells were passaged and plated in DMEM with glutamax supplemented with 10% FBS on either poly D-lysine-coated (HEK 293T) or gelatin-coated (HepG2) sterile 6-well Corning polystyrene plates. Cells were grown to 60 to 80% confluency prior to ionophore treatment.
Cells were washed twice with serum-free DMEM. 2 mM stock solutions of Cu(gtsm) or Gal-Cu(gtsm) were diluted in serum-free DMEM to a final ionophore concentration of 4 μM. 2 mL of vehicle (0.2% DMSO in DMEM), 4 μM Cu(gtsm), or 4 μM Gal-Cu(gtsm) were then added to the 6-well plates and incubated for three hours. For the galactose competition experiment, cells were washed twice with serum-free DMEM, then incubated with 2 mL serum-free DMEM either with or without 1 M D-galactose (Sigma Aldrich) for 15 minutes. 4 μL of DMSO, 2 mM Cu(gtsm), or 10 mM Gal-Cu(gtsm) was diluted with 300 μL of cell media, which was then mixed back into each well. Cells were then incubated for one hour. Cells were then rinsed twice with ice-cold EDTA (1 mM in 50 mM HEPES buffer, pH=7.4) to remove cell surface-bound copper and rinsed twice with ice-cold 50 mM HEPES buffer (pH=7.4), followed by the addition of 215 μL concentrated nitric acid (BDH Aristar Ultra). The plates were sealed with Parafilm and incubated on a shaker overnight. Samples (150 μL) were further diluted in 2 mL 2% nitric acid (made freshly from concentrated nitric acid and Milli-Q water) in 15 mL tubes (Sarstedt) and analyzed on a Thermo Fisher iCAP Qc ICP mass spectrometer in kinetic energy discrimination (KED) mode against a standard curve of known copper and phosphorus concentrations (CMS-5, Inorganic Ventures), with Ga (20 μg/L, Inorganic Ventures) as an internal standard. Each experiment was carried out twice and each condition was repeated in at least triplicate.

Data set [4] concerns alanine transaminase (ALT) activity. Put plainly: Serum alanine transaminase (ALT) assay. It is filed as in vivo, mice. The following applies: 6 hours, 0.75 mg Cu/kg. As for the experimental part: Mice were immediately euthanized by cervical dislocation.
Liver lysate (TBARS Assay via TCA Method, Cayman Chemical) and serum (BUN Assay, Invitrogen; ALT Assay, Cayman Chemical) samples were processed according to manufacturer instructions; sample concentration was selected based on initial dilution screening to fall within linear range of the standard curve. All samples were analyzed in triplicate.

Another data set relates to SOD. Put plainly: SOD assay in high fat diet mice. Conditions: vs untreated HFD mice. Format: in vivo.

On to `CNC1=N[N+]2=CC=[N+]3N=C(NCCOCCOCCOC4OC(CO)C(O)C(O)C4NC(C)=O)[S][Cu-2]23[S]1` (stereo not drawn) [Gal-Cu(gtsm)], for which, in data set [1], the “log P” value was −1.03±0.10. Also, the “retention of copper in presence of other metal ions” value in data set [2] is “retains copper selectively”. Further, the “ionophore toxicity (cell viability)” value in the data set with HEK 293T cells was “non-toxic”. Moreover, the “Cu increase relative to basal levels (^63Cu/^31P)” value in data set [3] (HepG2, 4 μM, three hours, serum-free DMEM) is recorded as 4 fold. In addition, the temperature dependent uptake result in data set [3] (HepG2, 4° C. vs 37° C.) was “much higher uptake at 37 °C than at 4 °C”. The “Cu delivery in presence of D-galactose (competitive ASGPR ligand)” value in data set [3] (HepG2, D-galactose 1 M, one hour, Cu(gtsm) 4 μM, Gal-Cu(gtsm) 20 μM) is listed as “significantly attenuated”. Further, in data set [3] (HepG2, ICP-MS total copper), the “dose response of cellular copper content” value was “robust dose-dependent copper delivery response”. In data set [4], the “serum ALT levels compared to vehicle control” value was “virtually the same”. In addition, the “SOD assay, anti-oxidant activity” value in the data set with SOD is reported as “improved anti-oxidant activity”.

For orientation: log P means the decadic logarithm of the partition coefficient of the neutral form, usually between octanol and water.
